In publication PMC9821907, “Synthesis and Antiprotozoal Activity of Azabicyclo-Nonane Pyrimidine Hybrids” (Molecules, 2022):
Where two headings read alike, the source gives them in different places.

How the values were obtained:
in vitro = conditions: rat
Protocol: (§1) Compounds were tested for their activities against Plasmodium falciparum NF54 (sensitive to chloroquine) and Trypanosoma brucei rhodesiense STIB900, via serial dilution assays. Furthermore, selected compounds were tested against the K1 strain of Plasmodium falciparum (resistant against chloroquine, sulfadoxine and pyrimethamine). Their cytotoxicity was determined with rat skeletal myoblasts (L-6 cells).
Assays were performed in 96-well microtiter plates, each well containing 0.1 mL of RPMI 1640 medium supplemented with 1% L-glutamine (200 mM) and 10% fetal bovine serum, and 4000 L-6 cells (a primary cell line derived from rat skeletal myoblasts, ATCC CRL-1458™). Serial drug dilutions of eleven 3-fold dilution steps covering a range from 100 to 0.002 μg/mL were prepared. After 70 h of incubation the plates were inspected under an inverted microscope to assure growth of the controls and sterile conditions. Then, 0.01 mL resazurin solution (resazurin, 12.5 mg in 100 mL double-distilled water) was added to each well and the plates incubated for another 2 h. The plates were read with a Spectramax Gemini XS microplate fluorometer (Molecular Devices Cooperation, Sunnyvale, CA, USA) using an excitation wave length of 536 nm and an emission wave length of 588 nm. The IC50 values were calculated by linear regression from the sigmoidal dose inhibition curves using SoftmaxPro software (Molecular Devices Cooperation, Sunnyvale, CA, USA). Podophyllotoxin (Sigma P4405) was used as control.

P. falciparum NF54 = experiment: In vitro microplate 3H-hypoxanthine incorporation assay against P. falciparum NF54; assay type: cell-based; conditions: Plasmodium falciparum
Protocol: as §1
(§2) In vitro activity against erythrocytic stages of P. falciparum was determined using a ^3H-hypoxanthine incorporation assay using the drug sensitive NF54 strain [27] or the chloroquine- and pyrimethamine-resistant K1 strain [28]. Compounds were dissolved in DMSO at 10 mg/mL and further diluted in medium before being added to parasite cultures incubated in RPMI 1640 medium without hypoxanthine, supplemented with HEPES (5.94 g/L), NaHCO3 (2.1 g/L), neomycin (100 U/mL), Albumax® (5 g/L) and washed human red cells A+ at 2.5% haematocrit (0.3% parasitaemia). Serial drug dilutions of eleven 3-fold dilution steps covering a range from 100 to 0.002 μg/mL were prepared. The 96-well plates were incubated in a humidified atmosphere at 37 °C; 4% CO2, 3% O2, 93% N2. After 48 h, 0.05 mL of ^3H-hypoxanthine (= 0.5 μCi) was added to each well of the plate. The plates were incubated for a further 24 h under the same conditions. The plates were then harvested with a Betaplate™ cell harvester (Wallac, Zurich, Switzerland), and the red blood cells transferred onto a glass fibre filter then washed with distilled water. The dried filters were inserted into a plastic foil with 10 mL of scintillation fluid, and counted in a Betaplate™ liquid scintillation counter (Wallac, Zurich, Switzerland). IC50 values were calculated from sigmoidal inhibition curves by linear regression using Microsoft Excel. Chloroquine (Sigma C6628) was used as control.

[1] = tested on: T. brucei rhodesiense STIB900; experiment: In vitro microplate resazurin assay against T. brucei rhodesiense; assay type: cell-based; conditions: Trypanosoma brucei, read-out: T. brucei rhodesiense STIB900 IC50
Protocol: as §1
Minimum essential medium (50 µL) supplemented with 25 mM HEPES, 1g/L additional glucose, 1% MEM non-essential amino acids (100×), 0.2 mM 2-mercaptoethanol, 1mM Na-pyruvate and 15% heat-inactivated horse serum was added to each well of a 96-well microtiter plate. Serial drug dilutions of eleven 3-fold dilution steps covering a range from 100 to 0.002 μg/mL were prepared. Then 4 × 10^3 bloodstream forms of T. b. rhodesiense STIB 900 in 50 µL was added to each well and the plate incubated at 37 °C under a 5 % CO2 atmosphere for 70 h. Next, 10 µL resazurin solution (resazurin, 12.5 mg in 100 mL double-distilled water) was added to each well and incubation continued for a further 2–4 h. Then the plates were read with a Spectramax Gemini XS microplate fluorometer (Molecular Devices Cooperation, Sunnyvale, CA, USA) using an excitation wave length of 536 nm and an emission wave length of 588 nm. Data were analyzed with the graphic programme Softmax Pro (Molecular Devices Cooperation, Sunnyvale, CA, USA), which calculated IC50 values by linear regression and 4-parameter logistic regression from the sigmoidal dose inhibition curves. Melarsoprol (Arsobal Sanofi-Aventis, received from WHO) was used as control.

P. falciparum K1 = experiment: In vitro microplate 3H-hypoxanthine incorporation assay against P. falciparum K1; assay type: cell-based, Plasmodium falciparum; conditions: Plasmodium falciparum
Protocol: as §1, §2

[2] = NF54 strain, sensitive to chloroquine and pyrimethamine, average of four determinations, read-out: P. falciparum NF54 IC50
[3] = bloodstream forms, average of four determinations
[4] = K1, K1 strain, resistant to chloroquine, sulfadoxine and pyrimethamine, average of four determinations, read-out: P. falciparum K1 IC50

| Structure (SMILES) | IC50 (P. falciparum NF54; [2]) | IC50 [1, 3] | IC50 at 72 h (in vitro) | IC50 (P. falciparum K1; [4]) | IC50 [1] | IC50 (P. falciparum NF54; NF54, read-out: P. falciparum NF54 IC50) | IC50 (P. falciparum K1; K1, read-out: P. falciparum K1 IC50) |
| --- | --- | --- | --- | --- | --- | --- | --- |
| Cc1cc(N2CC3C(c4ccccc4)CC(N4CCCCC4)(CC3c3ccccc3)C2)nc(N2CCCC2)n1 (racemic) [Compound 19, rac-(7R,8R)-3-[6-methyl-2-(pyrrolidin-1-yl)pyrimidin-4-yl]-6,9-diphenyl-1-(piperidin-1-yl)-3-azabicyclo[3.2.2]nonane] | 5290 ± 134 nM | 3160 ± 1060 nM | 58400 ± 22900 nM | 694 ± 268 nM |  |  |  |
| Cc1cc(N2CC3C(c4ccccc4)CC(N4CCCC4)(CC3c3ccccc3)C2)nc(N)n1 (racemic) [Compound 8] | 62 ± 1 nM | 322 ± 151 nM | 4480 ± 1440 nM |  |  |  |  |
| Nc1cc(N2CC3C(c4ccccc4)CC(N4CCCCC4)(CC3c3ccccc3)C2)nc(N)n1 (racemic) [Compound 11] | 23 ± 1 nM | 201 ± 39 nM | 4330 ± 235 nM | 87 ± 2 nM |  |  |  |
| Cc1cc(N2CC3C(c4ccccc4)CC(N4CCCC4)(CC3c3ccccc3)C2)nc(N2CCCCC2)n1 (racemic) [Compound 24, rac-(7R,8R)-3-[6-methyl-2-(piperidin-1-yl)pyrimidin-4-yl]-6,9-diphenyl-1-(pyrrolidin-1-yl)-3-azabicyclo[3.2.2]nonane] | 3790 ± 163 nM | 1450 ± 116 nM | 61800 ± 27900 nM |  |  |  |  |
| Nc1nc(N)nc(Nc2ccc([As]3SCC(CO)S3)cc2)n1 (stereo not drawn) [MEL, melarsoprol, reference compound] |  |  | 7780 nM |  | 10 nM |  |  |
| Cc1cc(N2CCC3(N4CCCC4)C[C@H](c4ccccc4)C2[C@@H](c2ccccc2)C3)nc(N2CCCCC2)n1 (racemic) [Compound 22, rac-(7R,8R)-2-[6-methyl-2-(piperidin-1-yl)pyrimidin-4-yl]-7,8-diphenyl-5-(pyrrolidin-1-yl)-2-azabicyclo[3.2.2]nonane] | 406 ± 15 nM | 107 ± 49 nM | 6730 ± 3080 nM |  |  |  |  |
| CCN(CC)CCCC(C)Nc1ccnc2cc(Cl)ccc12 (stereo not drawn) [CQ, chloroquine, reference compound] |  |  | 90900 nM |  |  | 3.9 nM | 163 nM |

The next lines start with results.

| IC50 (P. falciparum NF54; [2]) | IC50 [1, 3] | Structure (SMILES) | IC50 at 72 h (in vitro) | IC50 (P. falciparum K1; [4]) | IC50 [1] | IC50 (P. falciparum NF54; NF54, read-out: P. falciparum NF54 IC50) | IC50 (P. falciparum K1; K1, read-out: P. falciparum K1 IC50) |
| --- | --- | --- | --- | --- | --- | --- | --- |
| 136 ± 16 nM | 95 ± 32 nM | Cc1cc(N2CCC3(N4CCCC4)C[C@H](c4ccccc4)C2[C@@H](c2ccccc2)C3)nc(N2CCCC2)n1 (racemic) [Compound 18, rac-(7R,8R)-2-[6-methyl-2-(pyrrolidin-1-yl)pyrimidin-4-yl]-7,8-diphenyl-5-(pyrrolidin-1-yl)-2-azabicyclo[3.2.2]nonane] | 15000 ± 483 nM | 59 ± 2 nM |  |  |  |
| 694 ± 18 nM | 1550 ± 47 nM | Cc1cc(N2CCC3(N4CCCCC4)C[C@H](c4ccccc4)C2[C@@H](c2ccccc2)C3)nc(Cl)n1 (racemic) [Compound 13, rac-(7R,8R)-2-(2-chloro-6-methylpyrimidin-4-yl)-7,8-diphenyl-5-(piperidin-1-yl)-2-azabicyclo[3.2.2]nonane] | 3100 ± 51 nM | 567 ± 47 nM |  |  |  |
| 88 ± 57 nM | 161 nM | Cc1cc(N2CCC3(N4CCCC4)CC(c4ccccc4)C2C(c2ccccc2)C3)nc(N)n1 (racemic) [Compound 6, rac-4-[(7R,8R)-7,8-diphenyl-5-(pyrrolidin-1-yl)-2-azabicyclo[3.2.2]nonan-2-yl]-6-methylpyrimidin-2-amine] | 12500 ± 3310 nM |  |  |  |  |
| 4700 ± 1180 nM | 8720 ± 4200 nM | Cc1cc(N2CCC3(N4CCCCC4)C[C@H](c4ccccc4)C2[C@@H](c2ccccc2)C3)nc(N2CCCCC2)n1 (racemic) [Compound 21, rac-(7R,8R)-2-[6-methyl-2-(piperidin-1-yl)pyrimidin-4-yl]-7,8-diphenyl-5-(piperidin-1-yl)-2-azabicyclo[3.2.2]nonane] | 104000 ± 27000 nM |  |  |  |  |
| 617 ± 8 nM | 575 ± 33 nM | Cc1cc(N2CCC3(N4CCCCC4)C[C@H](c4ccccc4)C2[C@@H](c2ccccc2)C3)nc(N2CCCC2)n1 (racemic) [Compound 17, rac-(7R,8R)-2-[6-methyl-2-(pyrrolidin-1-yl)pyrimidin-4-yl]-7,8-diphenyl-5-(piperidin-1-yl)-2-azabicyclo[3.2.2]nonane] | 23200 ± 9930 nM |  |  |  |  |
